Test results as given in ChEMBL document CHEMBL1201862, “PubChem BioAssay data set” (2004).
The source made the active and inactive calls.

Experiments:
[1] = inhibitors of intracellular T. cruzi replication, confirmation, NIH3T3 host cells, beta-gal luminescence (AID 2044); format: functional, cell-based;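 note: intracellular parasites grown in NIH/3T3 mouse fibroblasts as host cells; luminescent beta-galactosidase reporter signal from transgenic T. cruzi replicating inside host cells; inhibitors lower the luminescence signal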
[2] = cytotoxicity toward NIH3T3 fibroblasts, dose response, counter-screen, cell-based, ATP luminescence, mouse fibroblasts (AID 2010); format: functional;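 note: cells exposed to compound for about 90 hours before reading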
[3] = biological target: T1, Replicative DNA helicase DnaB (Mycobacterium tuberculosis, UniProt P9WMR3); experiment: DnaB intein splicing inhibitors, dose response, biochemical, cell-free fluorescence (AID 449749); format: functional
T1 sequence (P9WMR3 whole entry): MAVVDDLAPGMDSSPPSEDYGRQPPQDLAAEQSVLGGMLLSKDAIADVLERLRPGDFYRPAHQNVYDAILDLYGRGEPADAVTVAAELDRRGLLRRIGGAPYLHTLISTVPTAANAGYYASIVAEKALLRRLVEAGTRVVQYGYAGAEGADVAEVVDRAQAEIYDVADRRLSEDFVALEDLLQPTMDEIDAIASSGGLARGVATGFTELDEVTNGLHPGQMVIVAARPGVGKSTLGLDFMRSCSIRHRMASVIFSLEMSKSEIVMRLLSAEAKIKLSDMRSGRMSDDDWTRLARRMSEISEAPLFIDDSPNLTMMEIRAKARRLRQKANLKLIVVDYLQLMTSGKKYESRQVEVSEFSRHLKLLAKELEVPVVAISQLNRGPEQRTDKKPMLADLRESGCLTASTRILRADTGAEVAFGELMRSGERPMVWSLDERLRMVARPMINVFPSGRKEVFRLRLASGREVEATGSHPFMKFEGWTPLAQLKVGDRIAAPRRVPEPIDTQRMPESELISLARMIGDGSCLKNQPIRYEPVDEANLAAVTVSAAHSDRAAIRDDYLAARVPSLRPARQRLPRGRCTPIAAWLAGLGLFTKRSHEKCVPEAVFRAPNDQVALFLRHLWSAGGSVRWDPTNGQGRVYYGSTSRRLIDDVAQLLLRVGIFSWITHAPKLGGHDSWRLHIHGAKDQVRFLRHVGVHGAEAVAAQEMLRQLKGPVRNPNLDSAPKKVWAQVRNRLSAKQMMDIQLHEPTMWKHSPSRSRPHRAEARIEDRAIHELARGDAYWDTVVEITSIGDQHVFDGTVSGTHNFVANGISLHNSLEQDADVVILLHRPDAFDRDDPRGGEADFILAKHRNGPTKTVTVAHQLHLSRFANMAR

[4] = biological target: T2, Apoptotic protease-activating factor 1 (Homo sapiens, UniProt O14727); format: functional
T2 sequence (O14727 whole entry): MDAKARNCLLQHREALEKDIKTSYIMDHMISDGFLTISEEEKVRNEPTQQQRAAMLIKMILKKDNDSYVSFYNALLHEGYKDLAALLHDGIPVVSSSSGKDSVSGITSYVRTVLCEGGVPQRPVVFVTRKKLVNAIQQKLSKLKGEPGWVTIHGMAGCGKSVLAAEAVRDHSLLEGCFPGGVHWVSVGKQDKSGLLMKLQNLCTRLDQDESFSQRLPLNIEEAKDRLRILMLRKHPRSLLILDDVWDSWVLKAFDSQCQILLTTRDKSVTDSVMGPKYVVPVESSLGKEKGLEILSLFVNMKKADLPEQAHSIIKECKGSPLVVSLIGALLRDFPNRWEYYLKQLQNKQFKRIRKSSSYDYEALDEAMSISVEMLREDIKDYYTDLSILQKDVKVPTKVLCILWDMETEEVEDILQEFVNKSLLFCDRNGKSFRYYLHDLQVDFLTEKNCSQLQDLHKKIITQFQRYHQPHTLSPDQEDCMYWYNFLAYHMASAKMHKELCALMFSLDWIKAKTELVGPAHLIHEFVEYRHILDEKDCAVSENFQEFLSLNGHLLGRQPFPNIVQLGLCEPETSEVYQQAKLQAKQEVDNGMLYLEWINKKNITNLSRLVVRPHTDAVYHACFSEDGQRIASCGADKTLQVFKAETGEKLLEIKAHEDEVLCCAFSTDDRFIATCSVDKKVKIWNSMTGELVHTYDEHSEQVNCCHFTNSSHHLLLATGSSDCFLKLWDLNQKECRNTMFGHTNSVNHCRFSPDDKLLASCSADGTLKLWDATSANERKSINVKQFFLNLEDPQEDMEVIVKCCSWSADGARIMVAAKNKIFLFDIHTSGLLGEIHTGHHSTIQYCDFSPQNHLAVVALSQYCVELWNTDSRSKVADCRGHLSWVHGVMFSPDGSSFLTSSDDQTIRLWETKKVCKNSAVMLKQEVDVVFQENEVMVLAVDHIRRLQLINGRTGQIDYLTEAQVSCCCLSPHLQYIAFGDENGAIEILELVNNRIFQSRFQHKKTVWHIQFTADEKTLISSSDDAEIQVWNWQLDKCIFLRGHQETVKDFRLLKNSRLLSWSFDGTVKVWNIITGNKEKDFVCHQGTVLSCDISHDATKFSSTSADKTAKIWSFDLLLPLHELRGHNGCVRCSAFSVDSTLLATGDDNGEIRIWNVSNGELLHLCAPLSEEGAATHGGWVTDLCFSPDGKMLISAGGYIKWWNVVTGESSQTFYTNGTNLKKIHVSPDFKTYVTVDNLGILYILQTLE

Protein RecA = biological target: T3, Protein RecA (Mycobacterium tuberculosis, UniProt P9WHJ3); experiment: Fluorescence Cell-Free Homogeneous Dose Retest to Identify Inhibitors of RecA-Intein Splicing Activity. [Related pubchem assays (depositor defined):AID2097, AID2223, AID489010, AID492950]; format: functional
T3 sequence (P9WHJ3 whole entry): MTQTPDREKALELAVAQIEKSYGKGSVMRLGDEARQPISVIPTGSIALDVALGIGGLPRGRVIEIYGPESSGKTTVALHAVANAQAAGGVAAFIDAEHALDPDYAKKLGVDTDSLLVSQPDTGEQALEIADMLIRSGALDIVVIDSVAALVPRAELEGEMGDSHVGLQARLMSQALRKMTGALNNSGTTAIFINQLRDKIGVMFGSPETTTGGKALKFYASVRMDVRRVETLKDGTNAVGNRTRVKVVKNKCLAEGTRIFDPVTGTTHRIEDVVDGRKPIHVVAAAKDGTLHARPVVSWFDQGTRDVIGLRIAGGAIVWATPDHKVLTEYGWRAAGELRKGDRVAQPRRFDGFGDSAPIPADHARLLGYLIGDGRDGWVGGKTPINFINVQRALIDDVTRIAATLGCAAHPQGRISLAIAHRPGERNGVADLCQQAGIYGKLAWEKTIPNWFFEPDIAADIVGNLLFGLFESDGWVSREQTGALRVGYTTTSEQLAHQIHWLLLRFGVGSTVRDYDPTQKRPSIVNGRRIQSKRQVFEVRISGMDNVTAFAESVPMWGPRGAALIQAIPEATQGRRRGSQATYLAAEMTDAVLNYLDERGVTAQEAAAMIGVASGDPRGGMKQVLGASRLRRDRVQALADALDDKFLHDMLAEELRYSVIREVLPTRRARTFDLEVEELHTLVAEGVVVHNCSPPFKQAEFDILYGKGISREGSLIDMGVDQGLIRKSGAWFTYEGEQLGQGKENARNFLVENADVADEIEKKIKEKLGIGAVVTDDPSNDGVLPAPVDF

INS1 = experiment: beta cell apoptosis inhibitors, cytokine rescue, dose response, luminescence, retest (AID 449756); format: functional, cell-based; conditions: Rattus norvegicus;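 note: cell death triggered by IL-1 beta plus TNF-alpha plus IFN-gamma mixture; protective hits raise ATP signal compared with cytokine alone wells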
[5] = biological target: Dual specificity tyrosine-phosphorylation-regulated kinase 1A (Rattus norvegicus, UniProt Q63470); format: biochemical, Homo sapiens
[6] = biological target: T4, Tyrosyl-DNA phosphodiesterase 2 (Homo sapiens, UniProt O95551); experiment: human TDP2 enzyme inhibitors, dose response, biochemical, epi absorbance, IC50 (AID 743297)
T4 sequence (O95551 whole entry): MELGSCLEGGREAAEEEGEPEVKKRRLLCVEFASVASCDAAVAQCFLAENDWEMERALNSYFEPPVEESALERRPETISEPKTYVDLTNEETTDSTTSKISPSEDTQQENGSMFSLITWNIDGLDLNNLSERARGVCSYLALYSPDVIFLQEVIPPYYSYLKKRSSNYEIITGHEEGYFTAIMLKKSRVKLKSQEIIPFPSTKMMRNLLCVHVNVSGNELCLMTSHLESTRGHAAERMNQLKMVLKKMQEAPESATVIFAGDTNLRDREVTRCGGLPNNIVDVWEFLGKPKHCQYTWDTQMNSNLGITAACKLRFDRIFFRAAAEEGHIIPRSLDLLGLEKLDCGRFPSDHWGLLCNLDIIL

Genome polyprotein = Genome polyprotein (dengue virus type 2, UniProt P29990); experiment: Dengue-2 NS5 methyltransferase inhibitors, primary screen, biochemical, confirmation dose response (AID 588689); format: functional
[7] = biological target: T5, Rac GTPase-activating protein 1 (Homo sapiens, UniProt Q9H0H5); experiment: MgcRacGAP GTPase-activating activity inhibitors, confirmation, biochemical, ADP Hunter fluorescence, primary and confirmatory (AID 624330); format: functional
T5 sequence (Q9H0H5 whole entry): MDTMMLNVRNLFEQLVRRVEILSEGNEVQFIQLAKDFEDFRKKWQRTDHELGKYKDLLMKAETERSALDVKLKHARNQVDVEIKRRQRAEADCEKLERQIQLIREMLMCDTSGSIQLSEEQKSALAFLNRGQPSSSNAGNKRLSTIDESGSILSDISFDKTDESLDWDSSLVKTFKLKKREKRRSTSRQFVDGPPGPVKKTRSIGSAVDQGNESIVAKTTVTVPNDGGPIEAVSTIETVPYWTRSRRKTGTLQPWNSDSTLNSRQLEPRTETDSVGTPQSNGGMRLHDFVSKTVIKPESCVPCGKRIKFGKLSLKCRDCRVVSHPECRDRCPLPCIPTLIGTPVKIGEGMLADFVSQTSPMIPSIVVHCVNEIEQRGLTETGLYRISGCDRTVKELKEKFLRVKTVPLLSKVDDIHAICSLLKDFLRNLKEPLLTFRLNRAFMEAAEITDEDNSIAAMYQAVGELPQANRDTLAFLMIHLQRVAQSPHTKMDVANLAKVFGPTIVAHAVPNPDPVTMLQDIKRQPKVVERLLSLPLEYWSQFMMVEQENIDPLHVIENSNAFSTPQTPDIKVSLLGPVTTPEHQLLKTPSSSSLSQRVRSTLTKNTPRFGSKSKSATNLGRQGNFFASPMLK

Paired box protein Pax-8 = Paired box protein Pax-8 (Homo sapiens, UniProt Q06710); experiment: inhibitors of PAX8-driven TPO luciferase reporter, dose response, RMG-I cells, cherry-pick (AID 687027); format: functional, cell-based;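 note: luciferase reporter driven by Pax8 target thyroperoxidase promoter measured by SteadyGlo luminescence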
Caspase-6 = biological target: T6, Caspase-6 (Homo sapiens, UniProt P55212); experiment: human caspase-6 inhibitors, dose response, biochemical, VEID-R110 fluorescence, cherry-pick (AID 720632)
T6 sequence (P55212 whole entry): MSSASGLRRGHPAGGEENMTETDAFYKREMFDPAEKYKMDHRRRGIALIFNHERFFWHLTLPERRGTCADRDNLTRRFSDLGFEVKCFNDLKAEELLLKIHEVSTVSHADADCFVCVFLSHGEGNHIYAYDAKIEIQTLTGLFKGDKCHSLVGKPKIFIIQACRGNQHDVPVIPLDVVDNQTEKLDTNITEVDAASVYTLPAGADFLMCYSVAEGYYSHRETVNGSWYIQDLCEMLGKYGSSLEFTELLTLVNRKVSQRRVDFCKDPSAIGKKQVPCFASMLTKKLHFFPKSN

HEK293 = experiment: inhibitors of LMP1-driven NF-kB reporter, dose response, cell-based, HEK293, luciferase, cherry-pick (AID 588343); format: functional; conditions: Homo sapiens
[8] = biological target: T7, Endoribonuclease toxin MazF (Escherichia coli K-12, UniProt P0AE70); experiment: MazF toxin RNase activators, dose response, biochemical, fluorescence, single-stranded RNA substrate, uHTS hits (AID 588481); format: functional
T7 sequence (P0AE70 whole entry): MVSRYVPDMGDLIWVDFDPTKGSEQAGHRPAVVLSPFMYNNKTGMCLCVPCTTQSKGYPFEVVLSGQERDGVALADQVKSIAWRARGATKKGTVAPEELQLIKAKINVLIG

[9] = biological target: T7, Endoribonuclease toxin MazF; experiment: fluorescent RNA oligo signal without MazF, dose response, counter-screen for MazEF activator project, biochemical, fluorescence, single-stranded RNase substrate (AID 588502); format: functional

Sequence of Paired box protein Pax-8 (Q06710 whole entry): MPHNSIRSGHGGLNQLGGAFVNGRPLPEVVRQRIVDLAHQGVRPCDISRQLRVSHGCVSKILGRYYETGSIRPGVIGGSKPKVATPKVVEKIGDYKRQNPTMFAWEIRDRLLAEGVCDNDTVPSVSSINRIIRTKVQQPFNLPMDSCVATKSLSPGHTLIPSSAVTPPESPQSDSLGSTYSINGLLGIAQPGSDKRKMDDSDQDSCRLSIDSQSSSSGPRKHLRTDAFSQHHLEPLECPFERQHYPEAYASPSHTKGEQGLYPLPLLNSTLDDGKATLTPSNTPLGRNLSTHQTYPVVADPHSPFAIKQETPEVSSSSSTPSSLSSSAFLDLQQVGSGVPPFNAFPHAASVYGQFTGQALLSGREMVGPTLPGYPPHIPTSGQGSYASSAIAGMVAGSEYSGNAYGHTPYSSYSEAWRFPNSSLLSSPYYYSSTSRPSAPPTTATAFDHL
Sequence of Genome polyprotein (P29990 2492-3391 limits assumed): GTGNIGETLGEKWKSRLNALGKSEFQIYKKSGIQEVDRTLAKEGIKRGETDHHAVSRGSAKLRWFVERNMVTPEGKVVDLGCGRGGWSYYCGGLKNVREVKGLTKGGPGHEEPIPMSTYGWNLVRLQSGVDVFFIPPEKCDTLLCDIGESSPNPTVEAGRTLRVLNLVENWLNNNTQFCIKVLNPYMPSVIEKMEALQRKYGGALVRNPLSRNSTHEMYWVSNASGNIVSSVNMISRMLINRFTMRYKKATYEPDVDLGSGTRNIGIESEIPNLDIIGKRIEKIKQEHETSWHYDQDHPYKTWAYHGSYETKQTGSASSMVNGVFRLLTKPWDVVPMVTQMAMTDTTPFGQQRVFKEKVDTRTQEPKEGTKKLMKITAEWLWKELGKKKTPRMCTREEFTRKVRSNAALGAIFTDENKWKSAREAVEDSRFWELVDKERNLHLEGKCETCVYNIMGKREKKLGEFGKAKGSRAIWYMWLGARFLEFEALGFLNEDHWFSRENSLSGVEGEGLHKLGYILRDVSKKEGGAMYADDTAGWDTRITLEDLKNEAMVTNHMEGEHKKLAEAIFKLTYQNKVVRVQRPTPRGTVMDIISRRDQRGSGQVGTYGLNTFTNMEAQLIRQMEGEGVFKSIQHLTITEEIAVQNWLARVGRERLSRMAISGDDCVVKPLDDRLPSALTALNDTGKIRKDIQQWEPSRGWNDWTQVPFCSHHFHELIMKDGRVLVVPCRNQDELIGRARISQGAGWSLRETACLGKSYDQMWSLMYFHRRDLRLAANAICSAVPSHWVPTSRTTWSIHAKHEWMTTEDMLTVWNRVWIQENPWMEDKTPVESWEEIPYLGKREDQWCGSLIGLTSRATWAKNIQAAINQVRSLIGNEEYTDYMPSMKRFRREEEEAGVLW

## Cc1ccc(NC2=C(N3CCCCC3)C(=O)c3ccccc3C2=O)cc1
[1]
  EC50: 0.629 µM (active)
[2]
  EC50: > 30 µM (not active)
[3]
  AC50: 7.31 µM (active)
[4]
  IC50: 4.88 µM (active)
Protein RecA
  EC50: 0.619 µM (active)
INS1
  AC50: 0.489 µM (active)
[5]
  AC50: 11 µM (active)
[6]
  IC50: > 128 µM (inactive)

## Nc1nc(Sc2ccc([N+](=O)[O-])c3nonc23)c2[nH]cnc2n1
Genome polyprotein
  IC50: 16 µM (active)
[7]
  IC50: 49.7 µM (active)
Paired box protein Pax-8
  AC50: 2.17 µM (active)
Caspase-6
  AC50: 5.68 µM (active)

## CC(C)Nc1nnc(SCC(=O)c2c(N)n(Cc3ccccc3)c(=O)n(C)c2=O)s1
HEK293
  AC50: 101 µM (active)

## Cc1ccc(-n2nnnc2SCC(=O)c2c(N)n(C3CC3)c(=O)[nH]c2=O)cc1C
[8]
  EC50: > 99 µM (inactive)
[9]
  EC50: > 99 µM (inactive)
